US9018171B2, “Uses of an immunomodulatory protein (GMI) from Ganoderma microsporum” (Mycomagic Biotechnology Co., Ltd., priority 2010, dated 2015)

Experiments:
EGFR = assay: Western blotting, EGF-induced phosphorylation; format: cell-based, human; details: A549 cells, pretreated 8 h, EGF 10 minutes
Method: A549 cells (5×10^5 cells/60 mm) were pretreated with various concentrations of GMI (4, 16 μg/ml) or AG1478 (EGFR inhibitors) for 8 hours prior to incubation for 10 minutes with EGF (as indicated). Cell lysates were subject to immunoblotting with phospho-specific EGFR (Y1068) (A and B), anti-phospho-AKT (A), anti-AKT (A), anti-phospho-GSK3β (A) or anti-phospho-STAT3 antibodies (B). Protein loading was determined by Western blotting against β-actin (A and B).
Total cell lysates were prepared in RIPA buffer (100 μl in 60 mm in dish). Fifty μg of lysate were loaded onto an 8% polyacrylamide gel and analyzed by SDS gel electrophoresis. After transfer to PVDF (Amersham), blots were blocked with 5% skim milk in TBS (10 mM Tris-CL pH7.5, 150 mM NaCl) containing 0.2% Tween-20. Blots were probed with antibodies (at their recommended dilutions) in 5% skim milk in TBS overnight at 4° C. Following detection with the appropriate horseradish-peroxidase conjugated secondary antibody (Cell Signaling), blots were developed by enhanced chemiluminescence according to the manufacturer's directions (Perkin Elmer Life Sciences). All experiments were performed in duplicate.
To assess whether GMI mediates and/or inhibits phosphorylation of Akt and Stat3, the invention investigated the effect of GMI on the phosphorylation status of Akt and Stat3 in A549 cells treated with various concentrations of GMI for 8 h.

A549/V16 = assay: MTT assay, drug sensitivity; format: cell-based, human; details: for value in parentheses after IC50 (ratio to parental A549): A549/V16; for IC50: Homo sapiens, A549/V16, 48 h, MTT
Method: (§1) A549 cell line and resistant A549 cell sublines (A549/D16, A549/D32 and A549/V16) (5000 cells/well of 96-well plate) were treated with increased doses concentrations (μM) of GMI from Ganoderma microsporum, docetaxel, vincristine and doxorubicin for 48 h, respectively. Cell viability was measured by MTT assay and the results are presented as the calculated cell growth inhibitory ratio. Experiments were repeated three times.

A549/D16 = assay: MTT assay, drug sensitivity; format: cell-based, human; details: for value in parentheses after IC50 (ratio to parental A549): A549/D16; for IC50: Homo sapiens, A549/D16, 48 h, MTT
Method: as §1

A549/D32 = assay: MTT assay, drug sensitivity; format: cell-based, human; details: for value in parentheses after IC50 (ratio to parental A549): A549/D32; for IC50: Homo sapiens, A549/D32, 48 h, MTT
Method: as §1

A549 = assay: MTT assay, drug sensitivity; format: cell-based, human; details: for IC50: Homo sapiens, A549, 48 h, MTT
Method: as §1

CaLu-1 cells = assay: MTT assay, cisplatin and GMI co-treatment; format: cell-based; details: CaLu-1, 48 h, read-out: cisplatin alone concentration needed to achieve about 50% cell viability
Method: CaLu-1 cells were co-treated with various concentrations of cisplatin (0, 2.5, 5, 10, 20 μM) and GMI from Ganoderma microsporum (0, 4, 8 and 16 μg/mL) for 48 h followed by MTT assay to estimate cell viability.
MTT assay was used to determine the effect of GMI and cisplatin on the proliferation of Calu-1 cells. In metabolically active cells, MTT (Thiazolyl Blue Tetrazolium Bromide) (Sigma) was reduced by dehydrogenase enzyme into an formazan product. Absorbance was measured directly at 570 nm from 96-well assay plates after adding 100 μl DMSO. The quantity of formazan was considered to be directly proportional to the number of viable cells in the culture.
Briefly, the cells (5×10^3) were incubated on 96-well plates containing 200 μl of growth medium. After 24 h incubation, the medium was carefully removed and 100 μl of fresh medium containing various concentrations of GMI and cisplatin were added to the wells. The cells were treated with GMI and cisplatin continuously for 48 h with 0, 4, 8, 16 μg/ml for GMI and with 0, 2.5, 5 and 10 μM for cisplatin. […] The absorbance was analyzed on a VERSAmax microplate reader at 570 nm. Absorbance values were presented as the mean±SE of 3 replicates for each treatment. […] Absorbance of untreated cells was considered 100%. […]

Structure (SMILES)	EGF-induced activation (phosphorylation) of EGFR (EGFR)	value in parentheses after IC50 (ratio to parental A549) (A549/V16)	IC50 (A549/V16) [nM]	value in parentheses after IC50 (ratio to parental A549) (A549/D16)	IC50 (A549/D16) [nM]	value in parentheses after IC50 (ratio to parental A549) (A549/D32)	IC50 (A549/D32) [nM]	value in parentheses after IC50 (ratio to parental A549) (A549)	IC50 (A549) [nM]	IC50 (CaLu-1 cells) [nM]
COc1cc2ncnc(Nc3cccc(Cl)c3)c2cc1OC [AG1478, reference compound]	able to inhibit EGFR phosphorylation									
COc1cccc2c1C(=O)c1c(O)c3c(c(O)c1C2=O)C[C@@](O)(C(=O)CO)C[C@@H]3O[C@H]1C[C@H](N)[C@H](O)[C@H](C)O1 [Doxorubicin]		6.9	1530 ± 80.8	15.4	3420 ± 152	34.6	7690 ± 148	1.0	223 ± 23.2	
N.N.[Cl][Pt][Cl] [cisplatin]										~10000
CC[C@]1(O)C[C@H]2CN(CCc3c([nH]c4ccccc34)[C@@](C(=O)OC)(c3cc4c(cc3OC)N(C=O)[C@H]3[C@@](O)(C(=O)OC)[C@H](OC(C)=O)[C@]5(CC)C=CCN6CC[C@]43[C@@H]65)C2)C1 [Vincristine]		51.2	760 ± 92.4	51.9	770 ± 56.6	49.2	730 ± 28.3	1.0	14.9 ± 0.1	
CC(=O)O[C@@]12CO[C@@H]1C[C@H](O)[C@@]1(C)C(=O)[C@H](O)C3=C(C)[C@@H](OC(=O)[C@H](O)[C@@H](NC(=O)OC(C)(C)C)c4ccccc4)C[C@@](O)([C@@H](OC(=O)c4ccccc4)[C@H]21)C3(C)C [Docetaxel]		121.9	780 ± 51.3	114.1	730 ± 56.6	318.0	2040 ± 955	1.0	6.4 ± 0.1	
